Laboratory results reported in patent US9145398B2, “Methods of treating CXCR4-expressing cancers” (University of Louisville Research Foundation, Inc., priority 2010, dated 2015).
Entries after “also recorded” stand apart in the source; their conditions may differ.

Key:
BLT1 [1] = biological target: T1, BLT1 (Homo sapiens, UniProt Q15722); assay: Chemotaxis assay, cells expressing BLT1, LTB4; format: cell-based; settings: 50 μM test compound, LTB4-induced
Method: (§1) Cells were suspended in chemotaxis buffer (RPMI 1640, 1% fetal bovine serum, 1 mM HEPES) at a concentration of 1×10^7 cells per ml. Cell chemotaxis was determined by examining the migration of the 300.19 cells in response to administration of 50 μM test compound plus an optimized concentration of CXCL12 using a chemotaxis assay that was previously described in Basu et al. (Basu et al., Critical role for polar residues in coupling leukotriene B4 binding to signal transduction in BLT1, J. Biol. Chem. (2007) Vol. 282, pp. 10005-17). 100 μL of 300.19 cells from the above cell suspension were placed in the upper chamber of a Transwell support (Corning Costar, Cambridge, Mass.) and were separated by a 5 micron filter from a bottom chamber containing 50 μM test compound plus the optimized concentration of CXCL12 in a final bottom chamber volume of 600 μl. After 3 h of incubation at 37° C. in 5% CO2, the upper chamber was removed and cells in the lower chamber were counted in a Bürker chamber. Cell counts for all samples were normalized to a CXCL12 plus DMSO control and results are reported using this normalized measure, referred to herein as the chemotaxis index. In some instances, the IC50 concentration (i.e., the concentration at which the chemotaxis index is reduced to 50% of the chemotaxis index of the CXCL12 plus DMSO control) of the test compounds was determined. All assays were performed a minimum of four times; error bars represent the standard deviation of the mean.
To examine specificity of some of the compounds for CXCR4, their activity was tested against a non-family member class A G protein-coupled receptor, BLT1. […] I-38 and I-43 inhibited BLT1-mediated chemotaxis (0.23) and (0.045) to about the same extent as CXCR4-mediated chemotaxis (0.21) and (0.064), respectively.

CXCR4 = biological target: T2, CXCR4 (Homo sapiens, UniProt P61073); assay: CXCL12-mediated chemotaxis of THP-1 cells; format: cell-based; settings: 10 μM compound, CXCL12 500 ng/ml
T2 construct: endogenous in cells; host or cells: THP-1 cells (ATCC TIB-202)
Method: Data are presented as a percentage of THP-1 cells (obtainable from ATCC accession number TIB-202) migrating toward a CXCL12 gradient of 500 ng/ml, normalized to the control, which was the CXCL12 only treatment. All assays were performed a minimum of four times with inhibitor concentration of 10 μM, except for I-61 and I-62 which used an inhibitor concentration of 1 μM. Error bars represent the standard deviation of the mean.
(§2) Chemotaxis assays were performed with selected compounds at a concentration of 10 μM. Chemokines signaling via CXCR4 (CXCL12 at concentration of 500 ng/ml) and CCR5 (RANTES at concentration of 300 ng/ml) were utilized to assess the receptor specificity of each compound. Each pair of columns for a lane corresponds to two separate representative experiments. The negative control samples (lanes 2 and 7) correspond to the chemotaxis without CXCL12 or RANTES. The CXCL12 and RANTES lanes are positive controls corresponding to CXCL12 alone (lanes 1 and 6) or RANTES alone (lanes 4 and 9) mediated chemotaxis. The experimental samples (lanes 3, 5, 8, and 10) correspond to CXCL12- or RANTES-mediated chemotaxis when the cells are co-incubated with I-38 or I-46.

[2] = Test for toxicity in mice; format: in vivo; settings: i.p. 5 mg/kg, then 20 or 40 mg/kg two days later; observed over 3 weeks
Method: Test for Toxicity: Mice were treated by intra-peritoneal injections of three of compounds I-28, I-36, and I-38 at the first dose of 5 mg/kg of body weight, followed by a second injection of either 20 mg/kg of body weight or 40 mg/kg of body weight two days later.

hCXCR4-GFP [3] = biological target: T3, hCXCR4-GFP (Homo sapiens, UniProt P61073); assay: Intracellular calcium mobilization assay, hCXCR4-GFP expressing 300.19 cells, CXCL12; format: cell-based; parameters: IC50 of intracellular calcium mobilization, CXCR4; other: CXCL12-mediated; other: 50 μM test compound; normalized Δ fluorescence (CXCR4, intracellular calcium mobilization); other: 50 μM test compound, 60 seconds pretreatm
Method: (§3) Intracellular Calcium Mobilization Assay Method: The intracellular calcium mobilization assay used 300.19 cells which stably expressed hCXCR4-GFP, as described previously in Pello et al. (2008). Cells were loaded with INDO-I and then pretreated with the 50 μM of the test compound for 60 seconds prior to stimulation of intracellular calcium mobilization with an optimized concentration of CXCL12. […] The value Δ florescence is the difference between (a) the fluorescence ratio from cells before exposure to CXCL12 at its optimized concentration and (b) the fluorescence ratio from cells following stimulation with the optimized concentration of CXCL12. Decreases in Δ florescence correspond to decreases in intracellular calcium mobilization, and therefore, decreased signaling. As CXCL12 concentration was optimized for each test compound, results are presented as normalized Δ florescence which is Δ fluorescence divided by the fluorescence ratio of optimized CXCL12-only stimulation. In some instances, the IC50 concentration (concentration at which intracellular calcium mobilization is reduced to 50% of the Δ fluorescence of the CXCL12 plus DMSO control) of the test compounds was determined. All assays were performed a minimum of four times; error bars represent the standard deviation of the mean.

TC-1 tumor cells = format: in vivo; settings: 5 mg/kg i.p. every day for 21 days; for TC-1 metastatic tumor incidence and burden in lungs: versus PBS or Vehicle controls
Source text: Development of Animal Model for CXCR4 Dependent Cancer Metastasis in Lungs: To establish a CXCR4 dependent lung tumor metastasis model, we first screened several cancer cell lines that are known to metastasize to lungs in mice models to determine which cancer cell lines endogenously express CXCR4 receptor. The mice cell lines screened were Lewis lung carcinoma, B16F10 melanoma, and TC-1 cervical carcinoma. Mice cell lines were screened using flow cytometry-based surface receptor staining using a fluorochrome labeled antibody to mouse CXCR4 receptor. […] The TC-1 cell line was generated by transfection of murine lung squamous epithelial cells by Human pappillomavirus (HPV) oncogenes E6, E7, and activated Ras.
5 mg/kg body weight of AMD3100, I-28, I-36, or I-38 were also injected at the same dose intra-peritoneal (i.p.) every day for 21 days starting from the day before the tumor cell injection. Mice were sacrificed and lungs were perfused and collected on day 21 post tumor challenge. Lungs were stored in formalin for 16 hrs and then transferred into 70% ethanol until the lung lobes became lucid. All five lung lobes were separated. Tumors were counted using a magnifying glass or a microscope. Tumor sizes were measured using a digital caliper. The total number of tumors counted in all five lung lobes of an individual mouse is reported as the tumor incidence. Mean tumor sizes were added together to calculate cumulative tumor size, which is reported as the tumor burden for each mouse.

CCR5 = biological target: T4, CCR5 (Homo sapiens, UniProt P51681); assay: RANTES-mediated chemotaxis of THP-1 cells; format: cell-based; settings: 10 μM compound, RANTES 300 ng/ml
T4 construct: endogenous in cells; host or cells: THP-1 cells
Method: as §2

hCXCR4-GFP [4] = biological target: T3, hCXCR4-GFP; assay: Chemotaxis assay, hCXCR4-GFP expressing 300.19 cells, CXCL12; format: cell-based; settings: for IC50: hCXCR4-GFP 300.19 cells, CXCL12
Method: as §1

300.19 cells = assay: Cytotoxicity assay, propidium iodide based flow cytometry; format: cell-based; settings: for cytotoxicity, percentage of cells staining positive for PI: 50 μM test compound
Method: Cytotoxicity Assay Method: To determine the potential for test compound cytotoxicity to influence cell intracellular calcium mobilization and chemotaxis, cell cytotoxicity was assessed using propidium iodide (PI) based flow cytometry. Propidium iodine is impermeable to intact cell membranes and thus its lack of intercalation into DNA (which increases PI fluorescence) is a positive indicator of cell viability. Cytotoxicity values are presented as percentage of cells staining positive for PI. Lower values of fluorescence indicate less cytotoxicity. All assays were performed a minimum of four times; error bars represent the standard deviation of the mean.

BLT1 [5] = biological target: T1, BLT1; assay: Intracellular calcium mobilization assay, cells expressing BLT1, LTB4; format: cell-based
Method: as §3
At 50 μM test compound concentrations in BLT1-expressing cells, I-44 (0.040) and I-46 (0.017) inhibited intracellular calcium mobilization.

MCF7 cells = assay: MTT cell proliferation assay, MCF7; format: cell-based, human; settings: Homo sapiens, MCF7, 96 h, 4 days
Method: (§4) To determine the potential for compounds to impact the proliferation of cells, cell growth was assessed capacity using the 3-(4,5-dimethylthiazol-2-yl)-2,5-diphenyltetrazolium bromide (MTT) assay. The effect of these compounds was determined for four cell lines: HS27, a “normal” fibroblast cell line; MCF7, an estrogen-dependant non-metastatic breast cancer cell line; MDA-MB-231, an estrogen-independent metastatic breast cancer cell line; and A549, a lung cancer cell line. Cells were left untreated, treated with 12.5 mM DMSO, or treated with varying concentrations of four compounds, (I-9, I-25, I-36, and I-37), then incubated for 4 days, before analysis. Absorbance at 490 nm represents proliferating cells. For samples using compounds, these values are normalized to untreated samples.

A549 cells = assay: MTT cell proliferation assay, A549; format: cell-based, human; settings: Homo sapiens, A549, 96 h, 4 days
Method: as §4

HS27 cells = assay: MTT cell proliferation assay, HS27; format: cell-based, human; settings: 4 days, normal fibroblast cell line
Method: as §4

hCXCR4-GFP [6] = assay: Chemotaxis assay, hCXCR4-GFP expressing 300.19 cells, CXCL12; format: cell-based, human; settings: from chemotaxis indices at 50 μM
Method: as §1

MDA-MB-231 cells = assay: MTT cell proliferation assay, MDA-MB-231; format: cell-based, human; settings: Homo sapiens, MDA-MB-231, 96 h, 4 days
Method: as §4

hCXCR4-GFP [7] = assay: Intracellular calcium mobilization assay, hCXCR4-GFP expressing 300.19 cells, CXCL12; format: cell-based, human; settings: 50 μM test compound
Method: as §3

T1 sequence (Q15722 whole entry, species assumed): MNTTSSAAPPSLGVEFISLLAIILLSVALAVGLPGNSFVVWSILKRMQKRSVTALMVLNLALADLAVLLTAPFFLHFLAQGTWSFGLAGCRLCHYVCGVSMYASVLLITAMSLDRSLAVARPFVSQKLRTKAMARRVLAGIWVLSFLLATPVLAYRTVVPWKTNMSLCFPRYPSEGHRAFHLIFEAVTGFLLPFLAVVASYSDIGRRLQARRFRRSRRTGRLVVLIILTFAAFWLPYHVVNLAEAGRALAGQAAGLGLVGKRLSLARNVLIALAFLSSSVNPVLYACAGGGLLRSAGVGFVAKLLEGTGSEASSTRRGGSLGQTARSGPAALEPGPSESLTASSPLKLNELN
T3 sequence (P61073 whole entry): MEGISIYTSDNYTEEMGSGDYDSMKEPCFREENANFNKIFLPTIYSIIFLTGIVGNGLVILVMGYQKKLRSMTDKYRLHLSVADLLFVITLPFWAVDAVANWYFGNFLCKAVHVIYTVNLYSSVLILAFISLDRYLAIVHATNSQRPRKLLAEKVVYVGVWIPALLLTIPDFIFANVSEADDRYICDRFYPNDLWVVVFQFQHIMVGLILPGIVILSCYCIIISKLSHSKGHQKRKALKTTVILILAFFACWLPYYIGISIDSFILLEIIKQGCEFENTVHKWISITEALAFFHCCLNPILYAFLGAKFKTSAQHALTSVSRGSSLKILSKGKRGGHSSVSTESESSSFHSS
T4 sequence (P51681 whole entry): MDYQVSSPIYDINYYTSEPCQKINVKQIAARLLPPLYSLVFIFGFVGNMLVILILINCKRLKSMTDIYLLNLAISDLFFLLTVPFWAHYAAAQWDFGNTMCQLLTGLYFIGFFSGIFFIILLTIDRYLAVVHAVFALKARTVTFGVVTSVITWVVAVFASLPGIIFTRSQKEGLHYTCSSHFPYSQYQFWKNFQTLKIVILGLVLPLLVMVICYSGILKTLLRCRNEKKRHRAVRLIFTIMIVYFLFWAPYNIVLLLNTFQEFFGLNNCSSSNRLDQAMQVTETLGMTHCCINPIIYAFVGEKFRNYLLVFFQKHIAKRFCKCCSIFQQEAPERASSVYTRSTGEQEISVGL
T2 sequence (P61073 whole entry): as the sequence (P61073 whole entry) above

SMILES: O=C(CO/N=C/c1ccccc1)N/N=C1\C(=O)N(CN(Cc2ccccc2)Cc2ccccc2)c2ccccc21 [Compound I-38, acetic acid, 2-[[(phenylmethylene)amino]oxy]-,2-[1-[[bis(phenylmethyl)amino]methyl]-1,2-dihydro-2-oxo-3H-indol-3-ylidene]hydrazide]
- chemotaxis index (BLT1-mediated) (BLT1 [1]): 0.23
- inhibition of CXCL12-mediated migration of THP-1 cells (CXCR4): specifically inhibit CXCR4 mediated migration
- apparent toxicity (loss of body weight, signs of physiological distress) [2]: did not induce any apparent toxicity
- inhibition of intracellular calcium mobilization (in words) (hCXCR4-GFP [3]; 50 μM test compound): does not significantly inhibit intracellular calcium mobilization; also recorded: little reduction of intracellular calcium mobilization
- efficacy compared with AMD3100 (TC-1 tumor cells): more effective than AMD3100
- reduction of average tumor burden (TC-1 tumor cells): more than 60%
- TC-1 metastatic tumor incidence and burden in lungs (TC-1 tumor cells): reduced mice TC-1 metastatic tumor incidence and burden in lungs
- inhibition of RANTES-mediated migration of THP-1 cells (CCR5): specifically inhibit CXCR4 mediated migration
- IC50 (hCXCR4-GFP [4]): 5 µM
- cytotoxicity, percentage of cells staining positive for PI (300.19 cells): 7.93%

SMILES: O=C(Nc1ccc2ccc3ccc(NC(=O)c4ccccc4)nc3c2n1)c1ccccc1 [Compound I-46, N,N′-1,10-phenanthroline-2,9-diylbis-benzamide]
- normalized Δ fluorescence (BLT1, intracellular calcium mobilization) (BLT1 [5]; 50 μM test compound, LTB4): 0.017
- inhibition of CXCL12-mediated migration of THP-1 cells (CXCR4): inhibit migration to both chemokines
- normalized Δ fluorescence (CXCR4, intracellular calcium mobilization) (hCXCR4-GFP [3]; 50 μM test compound, 60 seconds pretreatment, optimized CXCL12 (AMD3100 concentration not given)): 0.067
- inhibition of RANTES-mediated migration of THP-1 cells (CCR5): inhibit migration to both chemokines

SMILES: CCn1c2ccccc2c2ccc(Nc3nc4ccccc4nc3NS(=O)(=O)c3ccc(C)cc3)cc21 [Compound I-36, N-[3-(9-ethylcarbazol-2-yl)aminoquinoxalin-2-yl]-4-methyl-benzenesulfonamide]
- chemotaxis index (BLT1-mediated) (BLT1 [1]): 0.44
- apparent toxicity (loss of body weight, signs of physiological distress) [2]: did not induce any apparent toxicity
- IC50 (MCF7 cells): 12.5 µM
- IC50 (A549 cells): 22.5 µM
- TC-1 metastatic tumor incidence and burden in lungs (TC-1 tumor cells): reduced mice TC-1 metastatic tumor incidence and burden in lungs
- proliferation inhibition, HS27 (in words) (HS27 cells): marginal proliferation inhibition at higher concentrations
- fold greater inhibition of CXCR4-mediated than BLT1-mediated chemotaxis (hCXCR4-GFP [6]): 3.5 fold
- chemotaxis index (CXCR4-mediated) (hCXCR4-GFP [4]; 50 μM test compound plus optimized CXCL12, normalized to CXCL12 plus DMSO control): 0.12
- IC50 (hCXCR4-GFP [4]): 1 µM
- cytotoxicity, percentage of cells staining positive for PI (300.19 cells): 21.0%
- cytotoxicity in dose response below 50 μM (300.19 cells; 50 μM, 10 μM, 5 μM and 1 μM tested): no cytotoxicity beyond the initial 50 μM screening concentration
- IC50 (MDA-MB-231 cells): 30 µM

SMILES: Cc1ccc(N2C(=O)/C(=C/Nc3ccc(S(=O)(=O)Nc4ccc(O)cc4)cc3)c3ccccc3C2=O)cc1C [Compound I-28, 4-[[2-(3,4-dimethylphenyl)-1,3-dioxo-4-isoquinolylidene]methylamino]-N-(4-hydroxyphenyl)-benzenesulfonamide]
- IC50 (BLT1 [5]; LTB4-mediated): 22.5 µM
- apparent toxicity (loss of body weight, signs of physiological distress) [2]: did not induce any apparent toxicity
- IC50 (hCXCR4-GFP [3]; CXCL12-mediated, read-out: IC50 of intracellular calcium mobilization, CXCR4): 10 µM
- TC-1 metastatic tumor incidence and burden in lungs (TC-1 tumor cells): reduced mice TC-1 metastatic tumor incidence and burden in lungs
- difference between CXCR4- and BLT1-mediated intracellular calcium mobilization (hCXCR4-GFP [7]): no significant difference
